The record followed here is ChEMBL document CHEMBL1201862, “PubChem BioAssay data set” (2004).

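Interpolation was linear, between the two tested concentrations surrounding the appropriate level; five concentrations were tested over 48 hours in 96-well plates. GI50 is the concentration that inhibits growth by half.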 Activity calls are given as the source filed them. Rule as the data show it: active = GI50 up to about 1.1 µM and inactive = higher.

Some test systems named below: OVCAR-3; MDA-N; NCI-H23; 786-0; Hs-578T; HOP-62; K562; A549; RXF 393; MDA-MB-435; NCI/ADR-RES; MOLT-4; ACHN; CCRF-CEM; HCT-15; A498; U-251; SNB-19; Malme-3M; OVCAR-4.
What all share (assay): growth of human tumour cells (NCI), 48 h

Take `CC(C)C1CC=NN1C(=O)OC(C)(C)C` (stereo unspecified): the GI50 in the experiment on OVCAR-3, in the experiment with MDA-N, in the experiment with NCI-H23, with 786-0, with Hs-578T and in the experiment with HOP-62 was > 100 µM (inactive) each time. For the same compound, the GI50 in the experiment with K562, in the experiment with A549, with RXF 393, in the experiment with MDA-MB-435, in the experiment on NCI/ADR-RES and in the experiment on MOLT-4 was > 100 µM (inactive) in each case. In addition, the GI50 in the experiment on ACHN is > 100 µM (inactive); with CCRF-CEM it was > 100 µM (inactive); in the experiment with HCT-15 it was > 100 µM; in the experiment on A498, > 100 µM (inactive).
For `CCOC(=O)[C@@H](Cc1ccc(CCl)cc1)NC(C)=O`, the GI50 is 30.1 µM (inactive) in the experiment with OVCAR-3; 19 µM (inactive) in the experiment on MDA-N; 19.6 µM (inactive) with U-251; 25 µM (inactive) in the experiment on NCI-H23; 27.2 µM (inactive) in the experiment on SNB-19; 19.1 µM (inactive) in the experiment with 786-0. In addition, the GI50 with Hs-578T was 25.5 µM (inactive); with HOP-62, 23.9 µM (inactive); with K562, 34.4 µM (inactive); in the experiment with A549 it was 97.1 µM (inactive); in the experiment with RXF 393, 14 µM (inactive); with MDA-MB-435, 19.9 µM (inactive). The GI50 in the experiment on NCI/ADR-RES was 19.9 µM (inactive); in the experiment with MOLT-4 it was 29.2 µM (inactive); in the experiment on ACHN, 20.5 µM (inactive); in the experiment with Malme-3M it was 19.2 µM (inactive); in the experiment on CCRF-CEM, 26.7 µM (inactive); in the experiment with HCT-15 it was 27.4 µM. In addition, the GI50 with OVCAR-4 is 19.9 µM (inactive).
Consider `Cc1cc2nc(N3C(=O)/C(=C/c4ccc(Cl)cc4)N=C3c3ccccc3)sc2cc1C`, for which the GI50 in the experiment with OVCAR-3 is 15.7 µM (inactive); in the experiment on MDA-N, 12.5 µM (inactive); with U-251, 29.9 µM (inactive); with SNB-19, 42.5 µM (inactive); in the experiment on 786-0 it was 29.4 µM (inactive); in the experiment with Hs-578T, 26 µM (inactive). The GI50 was 28.9 µM (inactive) in the experiment on HOP-62; 32.4 µM (inactive) in the experiment on K562; 30 µM (inactive) in the experiment on A549; 14.6 µM (inactive) in the experiment on RXF 393; 8.28 µM (inactive) in the experiment on MDA-MB-435; 23.2 µM (inactive) in the experiment on NCI/ADR-RES. The GI50 with MOLT-4 was 53.8 µM (inactive); with ACHN, 37.7 µM (inactive); in the experiment on CCRF-CEM it was 18.1 µM (inactive); in the experiment with HCT-15 it was 29.1 µM; in the experiment on A498 it was 32.9 µM (inactive); in the experiment with OVCAR-4 it was 20 µM (inactive).
For the compound `C=C1C(O)C2(O)OCC34C(CC5C(C)=CC(=O)C(O)C5(C)C23)OC(=O)C(OC(=O)C/C=C(\C)CCCCC)C14` (stereo unspecified), the GI50 with MDA-N was < 0.001 µM (active); with U-251 it was 0.0125 µM (active); with NCI-H23 it was 0.0147 µM (active); in the experiment on SNB-19, 0.0146 µM (active); with 786-0, 0.00103 µM (active); with Hs-578T, < 0.001 µM (active). The GI50 is 0.0148 µM (active) in the experiment on HOP-62; 0.0125 µM (active) with K562; 0.017 µM (active) with A549; 0.0152 µM (active) with RXF 393; < 0.001 µM (active) with MDA-MB-435; 0.624 µM (active) with NCI/ADR-RES. Besides, the GI50 with MOLT-4 was 0.0125 µM (active); in the experiment with ACHN, < 0.001 µM (active); in the experiment with CCRF-CEM it was 0.0125 µM (active); with HCT-15, 0.0316 µM; in the experiment on A498, 0.0148 µM (active); in the experiment with OVCAR-4, 0.0125 µM (active).
